{
  "source": "patent US20250025443A1",
  "about": "“COMPOUNDS AND METHODS FOR TREATING CORONA VIRUSES” (CLEAR CREEK BIO, INC., priority 2021, published 2025)",
  "note": "pIC50: −log10 of the molar value.",
  "data": [
    {"biological_target": "SARS-CoV-2 Papain-Like Protease (PLpro) (Severe acute respiratory syndrome coronavirus 2 (2019-nCoV) (SARS-CoV-2), UniProt P0DTD1)", "assay": "biochemical", "settings": "PLpro enzymatic fluorescence assay; class symbols; read-out: PLpro IC50", "values": [
      {"molecule": "COc1cc(C2(NC(=O)c3cc(OCC(N)C(C)C)ccc3C)CC2)c2cccnc2c1", "note": "(centres unmarked) [Compound 572, 5-(2-Amino-3-methylbutoxy)-N-(1-(7-methoxyquinolin-5-yl)cyclopropyl)-2-methylbenzamide]", "pIC50": "> 7.00"},
      {"molecule": "COc1cc(C2(NC(=O)c3cc(OC[C@@H]4CCN4C)ccc3C)CC2)c2ccc(C)nc2c1", "note": "[Compound 625, (S)-N-(1-(7-Methoxy-2-methylquinolin-5-yl)cyclopropyl)-2-methyl-5-((1-methylazetidin-2-yl)methoxy)benzamide]", "pIC50": "> 7.00"},
      {"molecule": "C=Cc1cc(C2(NC(=O)c3cc(OC[C@@H]4CCN4C)c(NS(C)(=O)=O)cc3C)CC2)c2cccnc2c1", "note": "[Compound 760, (S)-2-Methyl-5-((1-methylazetidin-2-yl)methoxy)-4-(methylsulfonamido)-N-(1-(7-vinylquinolin-5-yl)cyclopropyl)benzamide]", "pIC50": "> 7.00"},
      {"molecule": "Cc1ccc(OC[C@@H]2CCN2C)cc1C(=O)NC1(c2cc(N3CCC3)cc3ncccc23)CC1", "note": "[Compound 723, (S)—N-(1-(7-(Azetidin-1-yl)quinolin-5-yl)cyclopropyl)-2-methyl-5-((1-methylazetidin-2-yl)methoxy)benzamide]", "pIC50": "> 7.00"},
      {"molecule": "Cc1ccc(OC[C@@H]2CCN2C)cc1C(=O)NC1(c2cc(-c3sccc3Cl)cc3ncccc23)CC1", "note": "[Compound 668, (S)-N-(1-(7-(3-Chlorothiophen-2-yl)quinolin-5-yl)cyclopropyl)-2-methyl-5-((1-methylazetidin-2-yl)methoxy)benzamide]", "pIC50": "> 7.00"},
      {"molecule": "Cc1ccc(OC[C@@H]2CCN2C)cc1C(=O)NC1(c2cc(-c3cnc(N4CCCCC4)nc3)cc3ncccc23)CC1", "note": "[Compound 701, (S)-2-Methyl-5-((1-methylazetidin-2-yl)methoxy)-N-(1-(7-(2-(piperidin-1-yl)pyrimidin-5-yl)quinolin-5-yl)cyclopropyl)benzamide]", "pIC50": "> 7.00"},
      {"molecule": "COc1cc(C2(NC(=O)c3cc(OC[C@@H]4CC[C@@H]5CNCCN54)ccc3C)CC2)c2cccnc2c1", "note": "[Compound 789]", "pIC50": "> 7.00"},
      {"molecule": "Cc1ccc(OC[C@@H]2CCN2C)cc1C(=O)NC1(c2cc(N(C)S(C)(=O)=O)cc3ncccc23)CC1", "note": "[Compound 818, (S)-2-Methyl-5-((1-methylazetidin-2-yl)methoxy)-N-(1-(7-(N-methylmethylsulfonamido)quinolin-5-yl)cyclopropyl)benzamide]", "pIC50": "> 7.00"},
      {"molecule": "C=Cc1cc(C2(NC(=O)c3cc(OCCNC)ccc3C)CC2)c2cccnc2c1", "note": "[Compound 615, 2-Methyl-5-(2-(methylamino)ethoxy)-N-(1-(7-vinylquinolin-5-yl)cyclopropyl)benzamide]", "pIC50": "> 7.00"},
      {"molecule": "CC#Cc1cc(C2(NC(=O)c3cc(OC[C@@H]4CCN4C)ccc3C)CC2)c2cccnc2c1", "note": "[Compound 721, (S)-2-Methyl-5-((1-methylazetidin-2-yl)methoxy)-N-(1-(7-(prop-1-yn-1-yl)quinolin-5-yl)cyclopropyl)benzamide]", "pIC50": "> 7.00"},
      {"molecule": "Cc1ccc(OC[C@@H]2CCN2C)cc1C(=O)NC1(c2cc(-c3cncc(N4CCOCC4)c3)cc3ncccc23)CC1", "note": "[Compound 699, (S)-2-Methyl-5-((1-methylazetidin-2-yl)methoxy)-N-(1-(7-(5-morpholinopyridin-3-yl)quinolin-5-yl)cyclopropyl)benzamide]", "pIC50": "> 7.00"},
      {"molecule": "COC1CN(c2cc(C3(NC(=O)c4cc(OC[C@@H]5CCN5C)ccc4C)CC3)c3ccc(C)nc3c2)C1", "note": "[Compound 811, (S)—N-(1-(7-(3-Methoxyazetidin-1-yl)-2-methylquinolin-5-yl)cyclopropyl)-2-methyl-5-((1-methylazetidin-2-yl)methoxy)benzamide]", "pIC50": "> 7.00"},
      {"molecule": "Cc1ccc2c(C3(NC(=O)c4cc(OC[C@@H]5CCN5C)ccc4C)CC3)cc(N(C)S(C)(=O)=O)cc2n1", "note": "[Compound 819, (S)-2-Methyl-N-(1-(2-methyl-7-(N-methylmethylsulfonamido)quinolin-5-yl)cyclopropyl)-5-((1-methylazetidin-2-yl)methoxy)benzamide]", "pIC50": "> 7.00"},
      {"molecule": "Cc1ccc(OC[C@@H]2CCN2C)cc1C(=O)NC1(c2cc(-c3cn[nH]c3)cc3ncccc23)CC1", "note": "[Compound 652, (S)-N-(1-(7-(1H-Pyrazol-4-yl)quinolin-5-yl)cyclopropyl)-2-methyl-5-((1-methylazetidin-2-yl)methoxy)benzamide]", "pIC50": "> 7.00"},
      {"molecule": "Cc1ccc(OC[C@@H]2CCN2)cc1C(=O)NC1(c2cc(-c3cccs3)cc3ncccc23)CC1", "note": "[Compound 608, (S)-5-(Azetidin-2-ylmethoxy)-2-methyl-N-(1-(7-(thiophen-2-yl)quinolin-5-yl)cyclopropyl)benzamide]", "pIC50": "> 7.00"},
      {"molecule": "Cc1ccc(OCCN(C)C)cc1C(=O)NC1(c2cccc(O)c2)CC1", "note": "[Compound 306, 5-(2-(Dimethylamino)ethoxy)-N-(1-(3-hydroxyphenyl)cyclopropyl)-2-methylbenzamide]", "pIC50": "< 5.30"},
      {"molecule": "Cc1ccc(OC[C@@H]2CCN2)cc1C(=O)NC1(c2cc(C3=CCCCC3)cc3ncccc23)CC1", "note": "[Compound 662, (S)-5-(Azetidin-2-ylmethoxy)-N-(1-(7-(cyclohex-1-en-1-yl)quinolin-5-yl)cyclopropyl)-2-methylbenzamide]", "pIC50": "> 7.00"},
      {"molecule": "Cc1ccc(OC[C@@H]2CCN2)cc1C(=O)NC1(c2cc(-c3ncccn3)cc3ncccc23)CC1", "note": "[Compound 682, (S)-5-(Azetidin-2-ylmethoxy)-2-methyl-N-(1-(7-(pyrimidin-2-yl)quinolin-5-yl)cyclopropyl)benzamide]", "pIC50": "> 7.00"},
      {"molecule": "Cc1ccc(OC[C@@H]2CCN2)cc1C(=O)NC1(c2cc(-c3ccc(C#N)s3)cc3ncccc23)CC1", "note": "[Compound 658, (S)-5-(Azetidin-2-ylmethoxy)-N-(1-(7-(5-cyanothiophen-2-yl)quinolin-5-yl)cyclopropyl)-2-methylbenzamide]", "pIC50": "> 7.00"},
      {"molecule": "CC(=O)c1ccc(-c2cc(C3(NC(=O)c4cc(OC[C@@H]5CCN5)ccc4C)CC3)c3cccnc3c2)s1", "note": "[Compound 643, (S)-N-(1-(7-(5-Acetylthiophen-2-yl)quinolin-5-yl)cyclopropyl)-5-(azetidin-2-ylmethoxy)-2-methylbenzamide]", "pIC50": "> 7.00"}
    ]},
    {"biological_target": "SARS-CoV-2 Papain-Like Protease (PLpro) (Severe acute respiratory syndrome coronavirus 2 (2019-nCoV) (SARS-CoV-2), UniProt P0DTD1)", "assay": "biochemical", "settings": "SARS-CoV-2 PLpro enzymatic fluorescence assay; read-out: PLpro IC50", "values": [
      {"molecule": "Cc1cc2cc(CCN)[nH]c2cc1C(=O)NC1(c2cccc3ccccc23)CC1", "note": "[Compound 202, 2-(2-Aminoethyl)-5-methyl-N-(1-(naphthalen-1-yl)cyclopropyl)-1H-indole-6-carboxamide]", "pIC50": "6.00 to 7.00"},
      {"molecule": "CC(c1cccc2ncccc12)N1CCC(C(=O)NCc2cccc(F)c2)CC1", "note": "(centres unmarked) [Compound 549, N-(3-Fluorobenzyl)-1-(1-(quinolin-5-yl)ethyl)piperidine-4-carboxamide]", "pIC50": "< 5.30"},
      {"molecule": "C[C@@H](NC(=O)c1ccc2nc[nH]c2c1)c1cccc2ccccc12", "note": "[Compound 125, (R)-N-(1-(Naphthalen-1-yl)ethyl)-1H-benzo[d]imidazole-6-carboxamide]", "pIC50": "< 5.30"},
      {"molecule": "C=Cc1cc(C2(NC(=O)c3cc(OC[C@@H]4CCN4C)c(N)cc3C)CC2)c2cccnc2c1", "note": "[Compound 726, (S)-4-Amino-2-methyl-5-((1-methylazetidin-2-yl)methoxy)-N-(1-(7-vinylquinolin-5-yl)cyclopropyl)benzamide]", "pIC50": "> 7.00"},
      {"molecule": "Cc1ccc(OCCN(C)C)cc1C(=O)NC1(c2cccc3ccoc23)CC1", "note": "[Compound 370, N-(1-(Benzofuran-7-yl)cyclopropyl)-5-(2-(dimethylamino)ethoxy)-2-methylbenzamide]", "pIC50": "6.00 to 7.00"},
      {"molecule": "Cc1ccc(OCCNc2ccccc2)cc1C(=O)NC1(c2cccc3ccccc23)CC1", "note": "[Compound 315, 2-Methyl-N-(1-(naphthalen-1-yl)cyclopropyl)-5-(2-(phenylamino)ethoxy)benzamide]", "pIC50": "5.30 to 6.00"},
      {"molecule": "Cc1ccc(OC2COC2)cc1C(=O)N[C@H](C)c1cccc2ccccc12", "note": "[Compound 152, (R)-2-Methyl-N-(1-(naphthalen-1-yl)ethyl)-5-(oxetan-3-yloxy)benzamide]", "pIC50": "5.30 to 6.00"},
      {"molecule": "Cc1ccc(OC[C@@H]2CCN2C)cc1C(=O)NC1(c2cc(OC(C)C)cc3ncccc23)CC1", "note": "[Compound 587, (S)-N-(1-(7-Isopropoxyquinolin-5-yl)cyclopropyl)-2-methyl-5-((1-methylazetidin-2-yl)methoxy)benzamide]", "pIC50": "> 7.00"},
      {"molecule": "COc1cc(C2(NC(=O)c3cc(OCC4CCN4C)ccc3C)CC2)c2ccc(F)cc2n1", "note": "(centres unmarked) [Compound 467, N-(1-(7-Fluoro-2-methoxyquinolin-4-yl)cyclopropyl)-2-methyl-5-((1-methylazetidin-2-yl)methoxy)benzamide]", "pIC50": "> 7.00"},
      {"molecule": "Cc1ccc(NC2CNC2)cc1C(=O)N1Cc2ccc(-c3ccc(CN4CCCC4)s3)cc2C1", "note": "[Compound 111, (5-(Azetidin-3-ylamino)-2-methylphenyl)(5-(5-(pyrrolidin-1-ylmethyl)thiophen-2-yl)isoindolin-2-yl)methanone]", "pIC50": "< 5.30"},
      {"molecule": "Cc1ccc(C2=CCNC2)cc1C(=O)NC1(c2cccc3ccccc23)CC1", "note": "[Compound 398, 5-(2,5-Dihydro-1H-pyrrol-3-yl)-2-methyl-N-(1-(naphthalen-1-yl)cyclopropyl)benzamide]", "pIC50": "> 7.00"},
      {"molecule": "Cc1cc2nc(CN)[nH]c2cc1C(=O)N[C@H](C)c1cccc(-c2ccc(CN[C@H]3CC[C@@H](O)C3)s2)c1", "note": "[Compound 151, 2-(Aminomethyl)-N-((R)-1-(3-(5-((((1S,3R)-3-hydroxycyclopentyl)amino)methyl)thiophen-2-yl)phenyl)ethyl)-5-methyl-1H-benzo[d]imidazole-6-carboxamide]", "pIC50": "6.00 to 7.00"},
      {"molecule": "Cc1cc2cc(CNC(=O)OC(C)(C)C)[nH]c2cc1C(=O)N[C@H](C)c1cccc2ccccc12", "note": "[Compound 189, (R)-tert-Butyl((5-methyl-6-((1-(naphthalen-1-yl)ethyl)carbamoyl)-1H-indol-2-yl)methyl)carbamate]", "pIC50": "< 5.30"},
      {"molecule": "Cc1ccc(OCC2CCN2C)cc1C(=O)NC1(c2cc(N)cc3ccccc23)CC1", "note": "(centres unmarked) [Compound 496, N-(1-(3-Aminonaphthalen-1-yl)cyclopropyl)-2-methyl-5-((1-methylazetidin-2-yl)methoxy)benzamide]", "pIC50": "> 7.00"},
      {"molecule": "Cc1cc(C)c(C(=O)NC2(c3cccc4ccccc34)CC2)cc1OCCN(C)C", "note": "[Compound 405, 5-(2-(Dimethylamino)ethoxy)-2,4-dimethyl-N-(1-(naphthalen-1-yl)cyclopropyl)benzamide]", "pIC50": "> 7.00"}
    ]}
  ]
}
